Holding throughout (assay type): cell-based
For experiment [1], the target named is T1, Gal-4 hPPARβ/δ (Homo sapiens, UniProt Q03181).
T1 construct: Plasmids pGal4-hPPARα, pGal4-hPPARγ, pGal4-hPPARδ and pG5-TK-pGL3 were constructed as previously described by Staels, Bart, et al., Nature 1998 Jun; 25
T1 sequence (Q03181 171-441 limits assumed): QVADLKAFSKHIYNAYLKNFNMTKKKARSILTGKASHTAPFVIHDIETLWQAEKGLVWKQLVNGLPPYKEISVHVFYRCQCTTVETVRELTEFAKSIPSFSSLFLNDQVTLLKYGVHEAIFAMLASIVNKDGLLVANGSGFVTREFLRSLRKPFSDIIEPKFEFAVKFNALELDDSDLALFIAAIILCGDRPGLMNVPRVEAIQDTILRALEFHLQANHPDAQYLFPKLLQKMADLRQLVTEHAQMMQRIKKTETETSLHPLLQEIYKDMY
In words: Gal4-hPPARδ transient transfection reporter assay in Cos cells. To be noted: luciferase reporter, 24 hours with compound, scale 1-5, read-out: Gal-4 hPPAR β/δ EC50 (scaled number). The method, then: (§1) Construction of recombinant plasmids. Plasmids pGal4-hPPARα, pGal4-hPPARγ, pGal4-hPPARδ and pG5-TK-pGL3 were constructed as previously described by Staels, Bart, et al., Nature 1998 Jun. 25; 393 (6687): 790-793, by Staels (Institut Pasteur de Lille, FR).
(§2) Transient transfection assays. Cos cells were seeded in 60-mm dishes at a density of 5.5×10^5 cells/dish in Dulbecco's modified Eagle's medium (DMEM) supplemented with 10% fetal calf serum (FCS) and incubated at 37° C. for 24 hours before transfection. Cells were transfected in Opti-MEM (Gibco; Invitrogen, Carlsbad, Calif.) without FCS for 3 hours at 37° C., using polyethylenimine, with reporter and expression plasmids. The plasmid pBluescript (Stratagene, La Jolla, Calif.) was used as carrier DNA to set the final amount of DNA to 5.5 μg/dish. The pCMV-b-galactosidase expression plasmid was cotransfected as a control for transfection efficiency. Transfection was stopped by the addition of DMEM supplemented with 10% FCS, and cells were then incubated at 37° C. After 16 hours, cells were trypsinized and seeded in 96-well plates at the density of 2×10^4 cells/well and incubated for 6 hours in 10% FCS-containing DMEM. Cells were then incubated for 24 hours in DMEM containing 0.2% FCS and increasing concentrations of the compound tested or vehicle (DMSO). At the end of the experiment, cells were washed once with ice-cold PBS, lysed and the luciferase and b-galactosidase assays were performed in a luminometer and spectrophotomer. Transfection efficiencies were normalized with the b-galactosidase activity assay. Half-maximal effective concentration (EC50) was estimated using Prism software (GraphPad). All transfection experiments were performed at least three times.
(§3) In the following tables, proprietary compound EC50 values for hPPAR α, β, δ and γ are shown. The EC50 value is the concentration of a drug that induces a response halfway between the baseline and maximum, and is commonly used as a measure of drug potency. EC50 values are reported on a scale of 1 through 5, wherein the value scale is defined for each receptor as follows: […]
Background: In a reporter assay the amount or activity of a reporter protein is the signal.

For experiment [2], the target named is T2, Gal-4 hPPARγ (Homo sapiens, UniProt P37231).
T2 construct: Plasmids pGal4-hPPARα, pGal4-hPPARγ, pGal4-hPPARδ and pG5-TK-pGL3 were constructed as previously described by Staels, Bart, et al., Nature 1998 Jun; 25
T2 sequence (P37231 238-505 limits assumed): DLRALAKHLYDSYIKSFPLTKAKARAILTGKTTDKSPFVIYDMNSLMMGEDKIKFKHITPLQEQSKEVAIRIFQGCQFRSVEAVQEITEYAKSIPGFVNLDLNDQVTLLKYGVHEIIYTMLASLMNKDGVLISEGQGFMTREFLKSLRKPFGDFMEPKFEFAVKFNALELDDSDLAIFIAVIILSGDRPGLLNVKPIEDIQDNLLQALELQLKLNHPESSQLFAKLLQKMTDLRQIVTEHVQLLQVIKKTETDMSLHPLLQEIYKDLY
Kind of experiment: Gal4-hPPARγ transient transfection reporter assay in Cos cells. The conditions noted are these: luciferase reporter, 24 hours with compound, scale 1-5, read-out: Gal-4 hPPAR γ EC50 (scaled number). The method, then:
as §1, §2, §3

The target in experiment [3] is T3, Gal-4 hPPARα (Homo sapiens, UniProt Q07869).
T3 construct: Plasmids pGal4-hPPARα, pGal4-hPPARγ, pGal4-hPPARδ and pG5-TK-pGL3 were constructed as previously described by Staels, Bart, et al., Nature 1998 Jun; 25
T3 sequence (Q07869 200-468 limits assumed): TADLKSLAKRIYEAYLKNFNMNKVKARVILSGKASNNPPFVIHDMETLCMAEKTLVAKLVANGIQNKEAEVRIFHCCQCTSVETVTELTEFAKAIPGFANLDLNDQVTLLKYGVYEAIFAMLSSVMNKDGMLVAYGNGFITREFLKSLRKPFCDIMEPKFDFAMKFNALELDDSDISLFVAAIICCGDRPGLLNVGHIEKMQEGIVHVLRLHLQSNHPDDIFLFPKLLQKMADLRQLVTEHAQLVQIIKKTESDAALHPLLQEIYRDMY
Kind of experiment: Gal4-hPPARα transient transfection reporter assay in Cos cells. The conditions noted are these: luciferase reporter, 24 hours with compound, scale 1-5, read-out: Gal-4 hPPAR α EC50 (scaled number). The method, then:
as §1, §2, §3

The structures appear in SMILES notation. A value given as a limit tells only on which side of the number the result lay.

With `CC(C)(Sc1ccc(C(=O)OCCc2cn(Cc3ccc(C(C)(C)C)cc3)nn2)cc1)C(=O)O` [Compound 144, 4-(1-Carboxy-1-methyl-ethylsulfanyl)-benzoic acid 2-[1-(4-tert-butyl-benzyl)-1H-1,2,3-triazol-4-yl]-ethyl ester], the EC50 in experiment [1] is greater than 1 µM; in experiment [2], greater than 1 µM; in experiment [3], 0.051 to 0.2 µM.
Regarding `C[C@H](Cc1cn(Cc2ccc(C(C)(C)C)cc2)nn1)OC(=O)c1ccc(SC(C)(C)C(=O)O)cc1` [Compound 138, 4-(1-Carboxy-1-methyl-ethylsulfanyl)-benzoic acid (R)-2-[1-(4-tert-butyl-benzyl)-1H-1,2,3-triazol-4-yl]-1-methyl-ethyl ester], the EC50 was greater than 1 µM in experiment [1], greater than 1 µM in experiment [2] and 0.001 to 0.05 µM in experiment [3].
In the case of `CCCn1c(COC(=O)c2ccc(SC(C)(C)C(=O)O)cc2)nn(Cc2ccc(Br)cc2)c1=O` [Compound 164, 2-(4-(((1-(4-bromobenzyl)-5-oxo-4-propyl-4,5-dihydro-1H-1,2,4-triazol-3-yl)methoxy)carbonyl)phenylthio)-2-methylpropanoic acid], the EC50 in experiment [1] is greater than 1 µM; in experiment [2], greater than 1 µM; in experiment [3], 0.001 to 0.05 µM.
Take `CCCn1c(COC(=O)c2ccc(OC(C)(C)C(=O)O)cc2)nn(Cc2ccc(SC(F)(F)F)cc2)c1=O` [Compound 210, 2-methyl-2-(4-(((5-oxo-4-propyl-1-(4-(trifluoromethylthio)benzyl)-4,5-dihydro-1H-1,2,4-triazol-3-yl)methoxy)carbonyl)phenoxy)propanoic acid]: the EC50 is greater than 1 µM in experiment [1], greater than 1 µM in experiment [2] and 0.201 to 0.999 µM in experiment [3].
Consider `CC(C)(Sc1ccc(C(=O)OCc2cn(Cc3ccc(SC(F)(F)F)cc3)nn2)cc1)C(=O)O` [Compound 71, 2-methyl-2-(4-(((1-(4-(trifluoromethylthio)benzyl)-1H-1,2,3-triazol-4-yl)methoxy)carbonyl)phenylthio)propanoic acid], for which the EC50 is greater than 1 µM in experiment [1], greater than 1 µM in experiment [2] and 0.051 to 0.2 µM in experiment [3].
Take `C[C@@H](OC(=O)c1ccc(SC(C)(C)C(=O)O)cc1)c1cn(Cc2ccc(SC(F)(F)F)cc2)nn1` [Compound 136, 4-(1-Carboxy-1-methyl-ethylsulfanyl)-benzoic acid (R)-1-[1-(4-trifluoromethylsulfanyl-benzyl)-1H-1,2,3-triazol-4-yl]-ethyl ester]: the EC50 in experiment [1] is greater than 1 µM; in experiment [2] it was 0.051 to 0.2 µM; in experiment [3], 0.001 to 0.05 µM.
The corresponding values for `CCCn1c(COC(=O)c2ccc(SC(C)(C)C(=O)O)cc2)nn(Cc2ccc(-c3ccccc3)cc2)c1=O` [Compound 163, 2-(4-(((1-(biphenyl-4-ylmethyl)-5-oxo-4-propyl-4,5-dihydro-1H-1,2,4-triazol-3-yl)methoxy)carbonyl)phenylthio)-2-methylpropanoic acid] are greater than 1 µM, greater than 1 µM and 0.001 to 0.05 µM.
With `C[C@H](OC(=O)c1ccc(SC(C)(C)C(=O)O)cc1)c1cn(Cc2ccc(C(F)(F)F)cc2)nn1` [Compound 97, (S)-2-methyl-2-(4-((1-(1-(4-(trifluoromethyl)benzyl)-1H-1,2,3-triazol-4-yl)ethoxy)carbonyl)phenylthio)propanoic acid], the values for the EC50 in experiment [1], in experiment [2] and in experiment [3] were greater than 1 µM, greater than 1 µM and 0.201 to 0.999 µM, respectively.
Regarding `CCCn1c(COC(=O)c2ccc(SC(C)(C)C(=O)O)cc2)nn(Cc2cccc(C(F)(F)F)c2)c1=O` [Compound 176, 2-methyl-2-(4-(((5-oxo-4-propyl-1-(3-(trifluoromethyl)benzyl)-4,5-dihydro-1H-1,2,4-triazol-3-yl)methoxy)carbonyl)phenylthio)propanoic acid], the EC50 in experiment [1] was greater than 1 µM; in experiment [2], greater than 1 µM; in experiment [3] it was 0.051 to 0.2 µM.
Regarding `C[C@@H](OC(=O)c1ccc(SC(C)(C)C(=O)O)cc1)c1cn(Cc2cc(C(F)(F)F)cc(C(F)(F)F)c2)nn1` [Compound 140, 4-(1-Carboxy-1-methyl-ethylsulfanyl)-benzoic acid (R)-1-[1-(3,5-bis-trifluoromethyl-benzyl)-1H-1,2,3-triazol-4-yl]-ethyl ester], the EC50 in experiment [1] was greater than 1 µM; in experiment [2], greater than 1 µM; in experiment [3], 0.001 to 0.05 µM.
In the case of `CC(C)(Oc1ccc(C(=O)OCc2cnn(Cc3ccc4c(c3)C(C)(C)CCC4(C)C)c2)cc1)C(=O)O` [Compound 28], the EC50 in experiment [1] was greater than 1 µM; in experiment [2], greater than 1 µM; in experiment [3], 0.201 to 0.999 µM.
With `C[C@@H](OC(=O)c1ccc(SC(C)(C)C(=O)O)cc1)c1cn(Cc2ccc(OC(F)(F)F)cc2)nn1` [Compound 137, 4-(1-Carboxy-1-methyl-ethylsulfanyl)-benzoic acid (R)-1-[1-(4-trifluoromethoxy-benzyl)-1H-1,2,3-triazol-4-yl]-ethyl ester], the EC50 in experiment [1] was greater than 1 µM; in experiment [2], greater than 1 µM; in experiment [3], 0.051 to 0.2 µM.
`CCCCCCn1c(COC(=O)c2ccc(SC(C)(C)C(=O)O)cc2)nn(Cc2ccc(C(OC)(C(F)(F)F)C(F)(F)F)cc2)c1=O` [Compound 201, 2-(4-(((1-(4-(1,1,1,3,3,3-hexafluoro-2-methoxypropan-2-yl)benzyl)-4-hexyl-5-oxo-4,5-dihydro-1H-1,2,4-triazol-3-yl)methoxy)carbonyl)phenylthio)-2-methylpropanoic acid]: the EC50 is greater than 1 µM in experiment [1], greater than 1 µM in experiment [2] and 0.001 to 0.05 µM in experiment [3].
For the compound `CCCCCCCn1c(C(C)OC(=O)c2ccc(SC(C)(C)C(=O)O)cc2)nn(Cc2ccc(C)cc2)c1=O` (stereo not drawn) [Compound 264, 4-(1-Carboxy-1-methyl-ethylsulfanyl)-benzoic acid 1-[4-heptyl-1-(4-methyl-benzyl)-5-oxo-4,5-dihydro-1H-1,2,4-triazol-3-yl]-ethyl ester], the results for the EC50 in experiment [1], in experiment [2] and in experiment [3] were greater than 1 µM, 0.051 to 0.2 µM and less than 0.001 µM, respectively.
As for `CCCn1c(COC(=O)c2ccc(SC(C)(C)C(=O)O)cc2)nn(Cc2cc(F)cc(F)c2)c1=O` [Compound 218, 2-(4-(((1-(3,5-difluorobenzyl)-5-oxo-4-propyl-4,5-dihydro-1H-1,2,4-triazol-3-yl)methoxy)carbonyl)phenylthio)-2-methylpropanoic acid], the EC50 in experiment [1] is greater than 1 µM; in experiment [2], greater than 1 µM; in experiment [3], 0.051 to 0.2 µM.
`CCn1c(COC(=O)c2ccc(SC(C)(C)C(=O)O)cc2)nn(Cc2ccc(C(C)(C)C)cc2)c1=O` [Compound 195, 2-(4-(((1-(4-tert-butylbenzyl)-4-ethyl-5-oxo-4,5-dihydro-1H-1,2,4-triazol-3-yl)methoxy)carbonyl)phenylthio)-2-methylpropanoic acid]: the EC50 in experiment [1] is greater than 1 µM; in experiment [2], greater than 1 µM; in experiment [3], 0.001 to 0.05 µM.

(Values after US20100184815A1 (priority 2008, published 2010).)
